The text below walks through data of patent US7612064B2, “Sulfopyrroles” (Takeda Pharmaceutical Company Limited, priority 2003, dated 2009).

One experiment deals with Jurkat. The experiment is described as follows: MTS proliferation assay. Format: cell-based, human. The note with it: 72 h. Put shortly:
(§1)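 Cells were exposed for 72 h under culture conditions to test compounds at final concentrations of 10, 3, 1 and 0.3 μM, added in complete medium with at most 5% DMSO. MTS reagent was then added for a further 3 h, and absorbance was read at 492 nm.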

The next experiment concerns HeLa. The experiment is described as follows: MTS proliferation assay. Format: cell-based, human. The note with it: 72 h. The gist of the method: as §1
In the next experiment the test system is MRC5. The experiment is described as follows: MTS proliferation assay. Format: cell-based. The note with it: MRC5, 72 h. The gist of the method:
as §1

The nature of experiment [1]: Hoechst 33342 nuclear staining. On Hoechst 33342 nuclear staining score, PBLs: key: 0: no activity; 1: weak activity comprising less than 50% of the cells; 2: strong activity comprising more than 50% of the cells.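 On all read-outs here: apoptotic nuclei scored 0 none 1 weak under 50% of cells 2 strong over 50% of cells.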 Format: cell-based. The note with it: for Hoechst 33342 nuclear staining score, H460: H460 cells; for Hoechst 33342 nuclear staining score, HeLa: HeLa cells; for Hoechst 33342 nuclear staining score, Jily: Jily cells; for Hoechst 33342 nuclear staining score, Jurkat: Jurkat cells; for Hoechst 33342 nuclear staining score, MRC5: MRC5 cells. The gist of the method: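 Cells were plated in 96 well tissue culture plates in 80 μl complete medium, with 3-5*10^3 cells per well for adherent lines and 8-10*10^3 for suspension lines. Adherent cells spread for 24 h before treatment, while suspension cells were treated right after seeding. Compounds were added in 20 μl complete medium containing max 5% DMSO.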

Setting [2] is: conc 0.1 (final concentrations in μM), 24 h or 48 h incubation.
[3] abbreviates: conc 0.3 (final concentrations in μM), 24 h or 48 h incubation.
The mark [4] stands for this setting: conc 1 (final concentrations in μM), 24 h or 48 h incubation.
Where [5] appears, read: conc 3 (final concentrations in μM), 24 h or 48 h incubation.
The mark [6] stands for this setting: conc 10 (final concentrations in μM), 24 h or 48 h incubation.

SMILES strings stand for the structures.

As a reminder, the IC50 is the concentration at which inhibition is half-maximal. Low values mean higher potency, high ones lower potency. Regarding `NC(=O)c1cncc(-c2cc(-c3ccc4c(c3)OCO4)n(S(=O)(=O)c3cccc(Cl)c3)c2)c1` [Example 75], the half-inhibitory concentration (IC50) in the experiment with Jurkat, in the experiment with HeLa and with MRC5 was more than 1000 nM in each case. Also, the “Hoechst 33342 nuclear staining score, H460” value in experiment [1] (conc 0.1), in experiment [1] (conc 0.3), in experiment [1] (conc 1) and in experiment [1] (conc 3) was 0 throughout. Besides, the “Hoechst 33342 nuclear staining score, HeLa” value in experiment [1] (conc 0.1), in experiment [1] (conc 0.3), in experiment [1] (conc 1) and in experiment [1] (conc 3) was 0 throughout. The “Hoechst 33342 nuclear staining score, Jily” value in experiment [1] (conc 0.1), in experiment [1] (conc 0.3), in experiment [1] (conc 1) and in experiment [1] (conc 3) was 0 each time. For the same molecule, the “Hoechst 33342 nuclear staining score, Jurkat” value in experiment [1] (conc 0.1), in experiment [1] (conc 0.3), in experiment [1] (conc 1) and in experiment [1] (conc 3) was 0 each time. The “Hoechst 33342 nuclear staining score, MRC5” value in experiment [1] (conc 0.1), in experiment [1] (conc 0.3), in experiment [1] (conc 1) and in experiment [1] (conc 3) was 0 throughout. The “Hoechst 33342 nuclear staining score, PBLs” value in experiment [1] (conc 0.1), in experiment [1] (conc 0.3), in experiment [1] (conc 1) and in experiment [1] (conc 3) was 0 each time.
With `COc1cc(-c2cc(-c3cncc(C(=O)NCCC4CCCN4C)c3)cn2S(=O)(=O)c2ccc(C)cc2)cc(OC)c1OC.Cl` (stereo not drawn) [Example 62], the IC50 in the experiment with Jurkat was more than 1000 nM. The IC50 with HeLa is more than 1000 nM. The molecule further showed an IC50 in the experiment with MRC5 of more than 1000 nM. In experiment [1] (conc 0.1), the “Hoechst 33342 nuclear staining score, H460” value is on record as 0; the “Hoechst 33342 nuclear staining score, HeLa” value stood at 0; the “Hoechst 33342 nuclear staining score, Jily” value came to 0; the “Hoechst 33342 nuclear staining score, Jurkat” value is 0. In addition, in experiment [1] (conc 0.1), the “Hoechst 33342 nuclear staining score, MRC5” value was found to be 0 and the “Hoechst 33342 nuclear staining score, PBLs” value is reported as 0. In experiment [1] (conc 0.3), the “Hoechst 33342 nuclear staining score, H460” value worked out at 0; the “Hoechst 33342 nuclear staining score, HeLa” value turned out to be 0; the “Hoechst 33342 nuclear staining score, Jily” value is 0; the “Hoechst 33342 nuclear staining score, Jurkat” value is recorded as 0. In experiment [1] (conc 0.3), the “Hoechst 33342 nuclear staining score, MRC5” value stood at 0 and the “Hoechst 33342 nuclear staining score, PBLs” value was 0. In addition, in experiment [1] (conc 1), the “Hoechst 33342 nuclear staining score, H460” value is given as 0; the “Hoechst 33342 nuclear staining score, HeLa” value is given as 0; the “Hoechst 33342 nuclear staining score, Jily” value stood at 0; the “Hoechst 33342 nuclear staining score, Jurkat” value was determined as 0. Moreover, in experiment [1] (conc 1), the “Hoechst 33342 nuclear staining score, MRC5” value is listed as 0 and the “Hoechst 33342 nuclear staining score, PBLs” value amounted to 0. In addition, in experiment [1] (conc 3), the “Hoechst 33342 nuclear staining score, H460” value is listed as 0; the “Hoechst 33342 nuclear staining score, HeLa” value was determined as 0; the “Hoechst 33342 nuclear staining score, Jily” value worked out at 0; the “Hoechst 33342 nuclear staining score, Jurkat” value is 2 (strong activity comprising more than 50% of the cells). Further, in experiment [1] (conc 3), the “Hoechst 33342 nuclear staining score, MRC5” value is 0 and the “Hoechst 33342 nuclear staining score, PBLs” value was 0.
For the molecule `Cc1ccc(S(=O)(=O)n2cc(CN3CCN(c4ncccn4)CC3)cc2-c2ccc3c(c2)OCO3)cc1` [Example 28], the IC50 in the experiment with Jurkat, in the experiment on HeLa and with MRC5 was more than 1000 nM each time. Moreover, the “Hoechst 33342 nuclear staining score, HeLa” value in experiment [1] (setting [2]), in experiment [1] (setting [3]), in experiment [1] (setting [4]) and in experiment [1] (setting [5]) was 0 each time. Also, the “Hoechst 33342 nuclear staining score, Jurkat” value in experiment [1] (setting [2]), in experiment [1] (setting [3]), in experiment [1] (setting [4]) and in experiment [1] (setting [5]) was 0 in each case.
Take `CCN1CCN(CCCNCc2cc(-c3ccc4c(c3)OCO4)n(S(=O)(=O)c3ccc(C)cc3)c2)CC1` [Example 29]: the concentration for half-maximal inhibition (IC50) with Jurkat, in the experiment with HeLa and in the experiment on MRC5 was more than 1000 nM throughout. Also, the “Hoechst 33342 nuclear staining score, HeLa” value in experiment [1] (setting [2]), in experiment [1] (setting [3]), in experiment [1] (setting [4]) and in experiment [1] (setting [5]) was 0 throughout. Besides, the “Hoechst 33342 nuclear staining score, Jurkat” value in experiment [1] (setting [2]), in experiment [1] (setting [3]), in experiment [1] (setting [4]) and in experiment [1] (setting [5]) was 0 throughout.
Regarding `CCN(CC)CCNCc1cc(-c2ccc3c(c2)OCO3)n(S(=O)(=O)c2ccc(C)cc2)c1` [Example 20], the IC50 in the experiment on Jurkat, with HeLa and with MRC5 was more than 1000 nM each time. Also, the “Hoechst 33342 nuclear staining score, HeLa” value in experiment [1] (setting [2]), in experiment [1] (setting [3]), in experiment [1] (setting [4]) and in experiment [1] (setting [5]) was 0 in each case. In addition, the “Hoechst 33342 nuclear staining score, Jurkat” value in experiment [1] (setting [2]), in experiment [1] (setting [3]), in experiment [1] (setting [4]) and in experiment [1] (setting [5]) was 0 each time.
On to `Cc1ccc(S(=O)(=O)n2cc(CNCCN3CCN(Cc4ccccc4)CC3)cc2-c2ccc3c(c2)OCO3)cc1` [Example 16], for which the half-inhibitory concentration (IC50) with Jurkat, in the experiment with HeLa and with MRC5 was more than 1000 nM throughout. The “Hoechst 33342 nuclear staining score, HeLa” value in experiment [1] (setting [2]) was 0; in experiment [1] (setting [3]), 0; in experiment [1] (setting [4]), 0; in experiment [1] (setting [5]), 1 (weak activity comprising less than 50% of the cells). The “Hoechst 33342 nuclear staining score, Jurkat” value in experiment [1] (setting [2]), in experiment [1] (setting [3]), in experiment [1] (setting [4]) and in experiment [1] (setting [5]) was 0 throughout.
In the case of `Cc1ccc(S(=O)(=O)n2cc(CNc3ccc(N4CCOCC4)cc3N3CCOCC3)cc2-c2ccc3c(c2)OCO3)cc1` [Example 39], the concentration for half-maximal inhibition (IC50) in the experiment with Jurkat, in the experiment with HeLa and in the experiment on MRC5 was more than 1000 nM in each case. For the same molecule, the “Hoechst 33342 nuclear staining score, HeLa” value in experiment [1] (setting [3]), in experiment [1] (setting [4]), in experiment [1] (setting [5]) and in experiment [1] (setting [6]) was 0 each time. Also, the “Hoechst 33342 nuclear staining score, Jurkat” value in experiment [1] (setting [3]), in experiment [1] (setting [4]), in experiment [1] (setting [5]) and in experiment [1] (setting [6]) was 0 each time.
With `CCCCOc1ccc(S(=O)(=O)n2cc(-c3cccnc3)cc2-c2cc(OC)c(OC)c(OC)c2)cc1` [Example 78], the IC50 in the experiment with Jurkat is more than 1000 nM. Moreover, in the experiment on HeLa, the half-maximal inhibitory concentration (IC50) was more than 1000 nM. The same molecule showed an IC50 in the experiment with MRC5 of more than 1000 nM. In experiment [1] (conc 0.1), the “Hoechst 33342 nuclear staining score, H460” value came out at 0; the “Hoechst 33342 nuclear staining score, HeLa” value is on record as 0; the “Hoechst 33342 nuclear staining score, Jily” value came to 0; the “Hoechst 33342 nuclear staining score, Jurkat” value amounted to 0. For the same molecule, in experiment [1] (conc 0.1), the “Hoechst 33342 nuclear staining score, MRC5” value is 0 and the “Hoechst 33342 nuclear staining score, PBLs” value is 0. In experiment [1] (conc 0.3), the “Hoechst 33342 nuclear staining score, H460” value stood at 0; the “Hoechst 33342 nuclear staining score, HeLa” value was determined as 0; the “Hoechst 33342 nuclear staining score, Jily” value came to 0; the “Hoechst 33342 nuclear staining score, Jurkat” value is on record as 0. Moreover, in experiment [1] (conc 0.3), the “Hoechst 33342 nuclear staining score, MRC5” value came to 0 and the “Hoechst 33342 nuclear staining score, PBLs” value is 0. In experiment [1] (conc 1), the “Hoechst 33342 nuclear staining score, H460” value is reported as 0; the “Hoechst 33342 nuclear staining score, HeLa” value is listed as 0; the “Hoechst 33342 nuclear staining score, Jily” value was found to be 0; the “Hoechst 33342 nuclear staining score, Jurkat” value was 0. In experiment [1] (conc 1), the “Hoechst 33342 nuclear staining score, MRC5” value was 0 and the “Hoechst 33342 nuclear staining score, PBLs” value is 0. Besides, in experiment [1] (conc 3), the “Hoechst 33342 nuclear staining score, H460” value turned out to be 0; the “Hoechst 33342 nuclear staining score, HeLa” value stood at 0; the “Hoechst 33342 nuclear staining score, Jily” value is 0; the “Hoechst 33342 nuclear staining score, Jurkat” value was found to be 0. Also, in experiment [1] (conc 3), the “Hoechst 33342 nuclear staining score, MRC5” value was 0 and the “Hoechst 33342 nuclear staining score, PBLs” value is recorded as 0.
As to `Cc1ccc(S(=O)(=O)n2cc(-c3ccc(C#N)cc3)cc2-c2ccc3c(c2)OCO3)cc1` [Example 48], the IC50 in the experiment on Jurkat, in the experiment on HeLa and in the experiment on MRC5 was more than 1000 nM each time. For the same molecule, the “Hoechst 33342 nuclear staining score, HeLa” value in experiment [1] (setting [2]), in experiment [1] (setting [3]), in experiment [1] (setting [4]) and in experiment [1] (setting [5]) was 0 throughout. The “Hoechst 33342 nuclear staining score, Jurkat” value in experiment [1] (setting [2]), in experiment [1] (setting [3]), in experiment [1] (setting [4]) and in experiment [1] (setting [5]) was 0 throughout.
